Literature values in US9012467B2, “Compositions for intratumoral administration” (Covidien LP, priority 2009, dated 2015).

Test system: mice
Conditions: acute toxicity

With COC(=O)C1=CO[C@@H](O)[C@@H]2C(CO)=CC[C@H]12 [Genipin, genipin] as the compound, how does the LD50 i.v. read?
Its LD50 i.v. is 382 mg/k.
